Experimental data: PubChem BioAssay AID1919004 (Molecular Pharmacology Branch, DTP, NCI, 2023)

Tested on: 883617-216-R-J1-PDC complex spheroids, growth, % test/control
Assay: Anticancer human tumor 883617-216-R-J1-PDC patient-derived bladder carcinoma cell line growth inhibition [AhR]
Conditions: for IC50: curve of first compound; for viability, T/C: stronger effect = lower value
Procedure, shortened: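 Spheroids combined tumor cells with HUVEC endothelial cells and human MSCs as stroma. AhR antagonists were paired with standard or investigational drugs, each dosed in half-log steps down from near clinical Cmax, or from 10 microM where Cmax was unknown.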

[1] = second compound 0.1 µM, first compound 0.00316 µM
[2] = second compound 0.1 µM, first compound 0.01 µM
[3] = second compound 0.1 µM, first compound 0.0316 µM
[4] = second compound 0.1 µM, first compound 0.1 µM
[5] = second compound 0.316 µM, first compound 0.00316 µM
[6] = second compound 0.316 µM, first compound 0.01 µM
[7] = second compound 0.316 µM, first compound 0.0316 µM
[8] = second compound 0.316 µM, first compound 0.1 µM
[9] = second compound 1 µM, first compound 0.00316 µM
[10] = second compound 1 µM, first compound 0.01 µM
[11] = second compound 1 µM, first compound 0.0316 µM
[12] = second compound 1 µM, first compound 0.1 µM
[13] = second compound 3.16 µM, first compound 0.00316 µM
[14] = second compound 3.16 µM, first compound 0.01 µM
[15] = second compound 3.16 µM, first compound 0.0316 µM
[16] = second compound 3.16 µM, first compound 0.1 µM
[17] = second compound 10 µM, first compound 0.00316 µM
[18] = second compound 10 µM, first compound 0.01 µM
[19] = second compound 10 µM, first compound 0.0316 µM
[20] = second compound 10 µM, first compound 0.1 µM
[21] = second compound 0.1 µM, first compound 0.316 µM
[22] = second compound 0.1 µM, first compound 1 µM
[23] = second compound 0.1 µM, first compound 3.16 µM
[24] = second compound 0.1 µM, first compound 10 µM
[25] = second compound 0.316 µM, first compound 0.316 µM
[26] = second compound 0.316 µM, first compound 1 µM
[27] = second compound 0.316 µM, first compound 3.16 µM
[28] = second compound 0.316 µM, first compound 10 µM
[29] = second compound 1 µM, first compound 0.316 µM
[30] = second compound 1 µM, first compound 1 µM
[31] = second compound 1 µM, first compound 3.16 µM
[32] = second compound 1 µM, first compound 10 µM
[33] = second compound 3.16 µM, first compound 0.316 µM
[34] = second compound 3.16 µM, first compound 1 µM
[35] = second compound 3.16 µM, first compound 3.16 µM
[36] = second compound 3.16 µM, first compound 10 µM
[37] = second compound 10 µM, first compound 0.316 µM
[38] = second compound 10 µM, first compound 1 µM
[39] = second compound 10 µM, first compound 3.16 µM
[40] = second compound 10 µM, first compound 10 µM
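Also: exposure lasted 7 days after dosing on day 3 of spheroid growth.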

## CC[C@@]1(O)C(=O)OCc2c1cc1n(c2=O)Cc2cc3c(CN(C)C)c(O)ccc3nc2-1 + Cc1ccccc1N=Nc1ccc(NC(=O)c2ccnn2C)c(C)c1
Second compound 0.1 µM
  IC50: > 100 nM
Second compound 0.316 µM
  IC50: > 100 nM
Second compound 1 µM
  IC50: > 100 nM
Second compound 3.16 µM
  IC50: > 100 nM
Second compound 10 µM
  IC50: > 100 nM
Second compound 0.1 µM, first compound 0.000316 µM
  viability, T/C: 90.7%
Second compound 0.1 µM, first compound 0.001 µM
  viability, T/C: 85%
[1]
  viability, T/C: 86.3%
[2]
  viability, T/C: 80.3%
[3]
  viability, T/C: 76.9%
[4]
  viability, T/C: 71.1%
Second compound 0.316 µM, first compound 0.000316 µM
  viability, T/C: 86.8%
Second compound 0.316 µM, first compound 0.001 µM
  viability, T/C: 86.6%
[5]
  viability, T/C: 76.2%
[6]
  viability, T/C: 73%
[7]
  viability, T/C: 70%
[8]
  viability, T/C: 62%
Second compound 1 µM, first compound 0.000316 µM
  viability, T/C: 82.5%
Second compound 1 µM, first compound 0.001 µM
  viability, T/C: 80.3%
[9]
  viability, T/C: 79.4%
[10]
  viability, T/C: 71.4%
[11]
  viability, T/C: 66%
[12]
  viability, T/C: 69.6%
Second compound 3.16 µM, first compound 0.000316 µM
  viability, T/C: 70%
Second compound 3.16 µM, first compound 0.001 µM
  viability, T/C: 79.1%
[13]
  viability, T/C: 78.6%
[14]
  viability, T/C: 74.7%
[15]
  viability, T/C: 70.7%
[16]
  viability, T/C: 71.3%
Second compound 10 µM, first compound 0.000316 µM
  viability, T/C: 74.2%
Second compound 10 µM, first compound 0.001 µM
  viability, T/C: 80.7%
[17]
  viability, T/C: 78%
[18]
  viability, T/C: 70.9%
[19]
  viability, T/C: 75.6%
[20]
  viability, T/C: 73%

## COc1cc(C2c3cc4c(cc3C(OC3OC5COC(C)OC5C(O)C3O)C3COC(=O)C23)OCO4)cc(OC)c1O (stereo not given) + Cc1ccccc1N=Nc1ccc(NC(=O)c2ccnn2C)c(C)c1
Second compound 0.1 µM
  IC50: > 10000 nM
Second compound 0.316 µM
  IC50: > 10000 nM
Second compound 1 µM
  IC50: > 10000 nM
Second compound 3.16 µM
  IC50: > 10000 nM
Second compound 10 µM
  IC50: > 10000 nM
[3]
  viability, T/C: 86.4%
[4]
  viability, T/C: 83.5%
[21]
  viability, T/C: 69.7%
[22]
  viability, T/C: 68%
[23]
  viability, T/C: 69.5%
[24]
  viability, T/C: 57.4%
[7]
  viability, T/C: 80.8%
[8]
  viability, T/C: 86.7%
[25]
  viability, T/C: 77.3%
[26]
  viability, T/C: 69%
[27]
  viability, T/C: 70.2%
[28]
  viability, T/C: 57.6%
[11]
  viability, T/C: 80.7%
[12]
  viability, T/C: 82%
[29]
  viability, T/C: 75.7%
[30]
  viability, T/C: 64.6%
[31]
  viability, T/C: 72.1%
[32]
  viability, T/C: 54.2%
[15]
  viability, T/C: 73%
[16]
  viability, T/C: 72.7%
[33]
  viability, T/C: 71.1%
[34]
  viability, T/C: 61.2%
[35]
  viability, T/C: 70.9%
[36]
  viability, T/C: 56.4%
[19]
  viability, T/C: 67.8%
[20]
  viability, T/C: 77.5%
[37]
  viability, T/C: 73.2%
[38]
  viability, T/C: 65.6%
[39]
  viability, T/C: 63.5%
[40]
  viability, T/C: 57.1%

## COc1cccc2c1C(=O)c1c(O)c3c(c(O)c1C2=O)CC(O)(C(=O)CO)CC3OC1CC(N)C(O)C(C)O1 (stereo not given) + Cc1ccccc1N=Nc1ccc(NC(=O)c2ccnn2C)c(C)c1
Second compound 0.1 µM
  IC50: 284 nM
Second compound 0.316 µM
  IC50: 255 nM
Second compound 1 µM
  IC50: 339 nM
Second compound 3.16 µM
  IC50: 258 nM
Second compound 10 µM
  IC50: 380 nM
[3]
  viability, T/C: 66.5%
[4]
  viability, T/C: 60.6%
[21]
  viability, T/C: 48.4%
[22]
  viability, T/C: 22.7%
[23]
  viability, T/C: 0.11%
[24]
  viability, T/C: 0.14%
[7]
  viability, T/C: 67.5%
[8]
  viability, T/C: 61.3%
[25]
  viability, T/C: 47.5%
[26]
  viability, T/C: 16.7%
[27]
  viability, T/C: 0.12%
[28]
  viability, T/C: 0.15%
[11]
  viability, T/C: 56.8%
[12]
  viability, T/C: 63.4%
[29]
  viability, T/C: 51.5%
[30]
  viability, T/C: 16.5%
[31]
  viability, T/C: 0.12%
[32]
  viability, T/C: 0.65%
[15]
  viability, T/C: 66.5%
[16]
  viability, T/C: 56%
[33]
  viability, T/C: 48.7%
[34]
  viability, T/C: 11.9%
[35]
  viability, T/C: 0.12%
[36]
  viability, T/C: 0.5%
[19]
  viability, T/C: 58.6%
[20]
  viability, T/C: 57.3%
[37]
  viability, T/C: 57.8%
[38]
  viability, T/C: 8.97%
[39]
  viability, T/C: 0.18%
[40]
  viability, T/C: 0.21%

## Nc1ncn(C2CC(O)C(CO)O2)c(=O)n1 (stereo not given) + Cc1ccccc1N=Nc1ccc(NC(=O)c2ccnn2C)c(C)c1
Second compound 0.1 µM
  IC50: > 1000 nM
Second compound 0.316 µM
  IC50: > 1000 nM
Second compound 1 µM
  IC50: > 1000 nM
Second compound 3.16 µM
  IC50: > 1000 nM
Second compound 10 µM
  IC50: > 1000 nM
[1]
  viability, T/C: 89.3%
[2]
  viability, T/C: 94.7%
[3]
  viability, T/C: 83.6%
[4]
  viability, T/C: 82.8%
[21]
  viability, T/C: 75.5%
[22]
  viability, T/C: 73.1%
[5]
  viability, T/C: 82.9%
[6]
  viability, T/C: 83.5%
[7]
  viability, T/C: 87.8%
[8]
  viability, T/C: 80.1%
[25]
  viability, T/C: 78.8%
[26]
  viability, T/C: 76.6%
[9]
  viability, T/C: 79.9%
[10]
  viability, T/C: 88.1%
[11]
  viability, T/C: 101%
[12]
  viability, T/C: 77.9%
[29]
  viability, T/C: 67.6%
[30]
  viability, T/C: 77.1%
[13]
  viability, T/C: 71.1%
[14]
  viability, T/C: 84.2%
[15]
  viability, T/C: 75.8%
[16]
  viability, T/C: 72.8%
[33]
  viability, T/C: 79.6%
[34]
  viability, T/C: 81.2%
[17]
  viability, T/C: 84.7%
[18]
  viability, T/C: 79.2%
[19]
  viability, T/C: 74.3%
[20]
  viability, T/C: 77.7%
[37]
  viability, T/C: 74.2%
[38]
  viability, T/C: 77.9%
